The test system of test [1] is A549. The test is described as follows: Antiproliferative activity against human A549 cells assessed as inhibition of cell growth measured after 48 hrs by MTT assay. The settings on record: A549, 48 h. It is filed as functional, cell-based. For orientation: Tetrazolium dyes change colour on reduction, which living cells bring about.
Test [2] deals with T47D. The experiment in a line: Antiproliferative activity against human T47D cells assessed as inhibition of cell growth measured after 48 hrs by MTT assay. The class given is functional, cell-based.
In test [3] the target is Tubulin. The experiment in a line: Inhibition of tubulin polymerization (unknown origin) incubated for 0.5 hrs in presence of GTP by spectrophotometer analysis. It is filed as protein-complex assay, Homo sapiens.
Test [4] addresses Tubulin (Homo sapiens) (UniProt P68371+Q9H4B7+P0DPH7+P68366+Q13509+Q71U36+P04350+Q3ZCM7+P07437+P68363+Q9BQE3+Q6PEY2+Q13885+Q9BVA1+Q9BUF5). The experiment in a line: Inhibition of tubulin polymerization (unknown origin) at 10 uM incubated for 0.5 hrs in presence of GTP by spectrophotometer analysis relative to control. The class given is protein-complex assay.

In ChEMBL document CHEMBL5247637, “Rational design, synthesis and biological evaluation of novel 2-(substituted amino)-[1,2,4]triazolo[1,5-a]pyrimidines as novel tubulin polymerization inhibitors” (Eur J Med Chem, 2022) one finds IC50 and inhibition data, which are given here for four compounds.

Turning to `COc1ccc(/C=C\c2cc(OC)c(OC)c(OC)c2)cc1O` [COMBRETASTATIN A4], the IC50 – broadly, the concentration at which inhibition is half-maximal – in test [1] was 27 nM; in test [2], 21 nM.

With `COc1ccc(C2C(C(C)=O)=C(C)N=C3N=C(c4cc(OC)c(OC)c(OC)c4)NN32)cc1[N+](=O)[O-]` (configuration not stated), the IC50 in test [3] stood at 9900 nM. The inhibition (in general, the drop in the measured response relative to a control, in per cent) in test [4] was 56%. The corresponding values for `COc1ccc(Nc2nc3nccc(-c4cc(OC)c(OC)c(OC)c4)n3n2)cc1O` are 4900 nM and 43%.

Regarding `COc1ccc(Nc2nc3nccc(-c4cc(OC)c(OC)c(OC)c4)n3n2)cc1N`, the inhibition in test [4] is 78%.
